Laboratory results as given in US8536304B2, “Tumour-associated peptides that bind to MHC molecules” (Immatics Biotechnologies GmbH, priority 2002, dated 2013).

Assays:
Format in all cases: cell-based, human
[1] = tested on: CD8+-T-lymphocytes; experiment: HLA-A*0201-tetramer staining of peripheral blood mononuclear cells from healthy individuals
Excerpt: Peripheral blood mononuclear cells from healthy patients were stained with HLA-A*0201-tetramers which were folded with adipophilin-, keratin 18- or met-protooncogene (c-Met)-peptides: For generation of the tetramers, recombinant HLA-A*0201-molecules were folded in vitro with the peptides […] (SEQ ID No. 2, adipophilin), […] (SEQ ID No. 3, keratin 18) or […] (SEQ ID No. 1, met-protooncogene, c-Met), purified by means of gel filtration, biotinylated and mixed with streptavidin to link the monomers.
In FIG. 1, the results of double staining are shown in dotplots, whereby in the middle row the results of staining with keratin 18 is shown. Between 0.02 and 0.2% of the CD8^+-positive T-cells were specific for keratin 18.

[2] = tested on: autologous DC of CLL patient; experiment: 51Cr-release assay, CTL of CLL patient against autologous peptide-pulsed DC; conditions: adipophilin-peptide-induced CTL of CLL patient; FIG. 6
Protocol: In the CTL-assays, tumor cells, peptide-pulsed cells of different cell lines and autologous DC were used as target cells. Peptide-pulsed cells were pulsed with 50 μg/ml peptide (SEQ ID No. 1 or SEQ ID No. 2) for 2 hours. All target cells were labeled with [^51Cr] sodium chromate in RP10 (RPMI 1640, supplemented with 10% heat inactivated calf serum and antibiotics) for 1 hour at 37° C. Subsequently, 10^4 cells/well were transferred to a 96-well round bottomed plate. Varying numbers of CTL were added to give a final volume of 200 μl and incubated for 4 hours at 37° C. At the end of the assays, supernatants (50 μl/well) were harvested and counted in a beta-plate counter. […] The spontaneous and maximal release were determined in the presence of either medium or 2% Triton X-100, respectively.
In a further experiment, CTL were generated from PBMNC of HLA-A*0201-positive patient with chronic lymphatic leukemia (CLL), which were specific for adipophilin-peptide with SEQ ID NO:2. The patient was in remission after treatment with fludarabine. Further, autologous CLL-cells and DC of this patient were used as ^51Cr-labeled targets in an assay, in which ^51Cr-release is mediated by the peptide-induced CTL.

[3] = tested on: 51Cr-labeled A 498; experiment: Lysis-inhibition assay with cold peptide-pulsed T2 inhibitor cells, target A 498
Protocol: (§1) To further verify the antigen-specificity and the MHC-restriction of the in-vitro-induced CTL, inhibition assays with non-^51Cr-labeled (“cold”) inhibitor cell lines were performed.
(§2) In doing so, the ability of peptide-pulsed cell lines was analyzed to inhibit the lysis of tumor cells (competition assay). For this purpose, an excess of inhibitor (that is an excess of unlabeled pulsed cells) was used. The ratio of inhibitor (peptide-pulsed cells) to target (tumor cells) was 20:1. When inhibitor cell lines were lysed, no ^51Cr was released, since the inhibitor cell lines were unlabeled.
(§3) Cell line T2 (HLA-A*02; TAP-deficient; see under 2.5.a) was used as inhibitor. Previous to the assay, this cell line T2 was pulsed with the relevant peptides (SEQ ID NOS:1 or 2) or an irrelevant control peptide (Survivin (=Sv), SEQ ID NO:80), respectively.
(§4) In FIGS. 4a and 4b, lysis of the ^51Cr-labeled cell lines U 266 and A 498 was tested without inhibitor cell line (see the curve with black filled boxes); lysis with inhibitor cell line T2, pulsed with an irrelevant peptide (Survivin; SEQ ID NO:80; negative control, curves with the filled triangles); and lyses with the inhibitor cell line T2 pulsed with the c-Met-peptide with SEQ ID NO:1 (curves with the empty rhombus).
With these inhibition assays, the cells were incubated with 10 μg/ml antibody previous to seeding on the 96-well-plates for 30 min.

[4] = tested on: 51Cr-labeled U 266; experiment: Lysis-inhibition assay with cold peptide-pulsed T2 inhibitor cells, target U 266; conditions: c-Met-peptide-induced CTL, inhibitor:target 20:1, FIGS. 4a and 4b
Protocol: as §1, §2, §3, §4

For “ALLNIKVKL (listed as Homo sapiens) [SEQ ID No. 3, HLA-A*02 ligand, keratin 18 365-373]”, the “healthy individuals with a significant population of specific CD8+-T-lymphocytes” value [1] was “four out of 22”.

“ELTLGEFLKL (listed as Homo sapiens) [Survivin, irrelevant control peptide, reference compound]” was tested, and the “lysis of autologous DC pulsed with the peptide” value [2] was “not lysed”, the “inhibition of CTL-induced lysis of tumor cell line by T2 cells pulsed with the peptide” value ([3]; adipophilin-peptide-induced CTL, FIG. 4c) was “not able to inhibit” and the “lysis of 51Cr-labeled tumor cells in presence of unlabeled T2 inhibitor cells pulsed with the peptide” value ([3]; c-Met-peptide-induced CTL, inhibitor:target 20:1, FIGS. 4a and 4b) was “not able to inhibit”. For the same sequence, the “lysis of 51Cr-labeled tumor cells in presence of unlabeled T2 inhibitor cells pulsed with the peptide” value [4] was “not able to inhibit”.
